Several values for one entry are separate records, joined by “and”; a condition that tells them apart may be missing. Equal values may be shown once.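 Growth conditions: 96-well plates. Treatment: test compound, 48 hours, 5 concentrations. Analysis: linear interpolation between bracketing concentrations; unreached endpoints set to highest concentration. GI50: concentration for 50% inhibition of growth.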 Activity calls are given as the source filed them. Cut-off read from the data, not from the text of the source: active = GI50 up to about 1.1 µM and inactive = higher.
Columns and labels:
Assay in all cases: NCI tumour cell line growth inhibition, 48 h
[1] = system: 786-0
[2] = system: A549
[3] = system: ACHN
[4] = system: HCC 2998
[5] = system: HOP-62
[6] = system: KM12
[7] = system: MOLT-4
[8] = system: NCI-H460
[9] = system: NCI-H522
[10] = system: OVCAR-5
[11] = system: OVCAR-8
[12] = system: SF-268
[13] = system: SK-MEL-5
[14] = system: SN12C
[15] = system: U-251
[16] = system: UO-31
[17] = system: CAKI-1
[18] = system: NCI-H226

SMILES | GI50 [1] | GI50 [2] | GI50 [3] | GI50 [4] | GI50 [5] | GI50 [6] | GI50 [7] | GI50 [8] | GI50 [9] | GI50 [10] | GI50 [11] | GI50 [12] | GI50 [13] | GI50 [14] | GI50 [15] | GI50 [16] | GI50 [17] | GI50 [18]
COC(=O)CCC1CCc2c(OC)ccc(OC)c2C1=O (stereo unspecified) | > 100 µM (inactive) | > 100 µM (inactive) | > 100 µM (inactive) | > 100 µM (inactive) | > 100 µM (inactive) | > 100 µM (inactive) | > 100 µM (inactive) | > 100 µM (inactive) | > 100 µM (inactive) | > 100 µM (inactive) | > 100 µM (inactive) | > 100 µM (inactive) | > 100 µM (inactive) | > 100 µM (inactive) | > 100 µM (inactive) | > 100 µM (inactive) |  | 
CSC1CC2C(CC1(C)O)C2(C)C (stereo unspecified) | > 100 µM (inactive) | > 100 µM (inactive) | > 100 µM (inactive) | > 100 µM (inactive) | > 100 µM (inactive) | > 100 µM (inactive) |  | > 100 µM (inactive) |  | > 100 µM (inactive) | > 100 µM (inactive) | > 100 µM (inactive) | > 100 µM (inactive) and 53.8 µM (inactive) | > 100 µM (inactive) | > 100 µM (inactive) | > 100 µM (inactive) and 65 µM (inactive) | > 100 µM (inactive) | 
Cc1nc2ccccc2c(=O)n1NC(=S)Nc1cccc(Cl)c1 | > 100 µM (inactive) | > 100 µM (inactive) | > 100 µM (inactive) |  | > 100 µM (inactive) | > 100 µM (inactive) | > 100 µM (inactive) | > 100 µM (inactive) | 33.7 µM (inactive) | > 100 µM (inactive) | > 100 µM (inactive) | > 100 µM (inactive) | > 100 µM (inactive) | > 100 µM (inactive) | > 100 µM (inactive) | > 100 µM (inactive) | > 100 µM (inactive) | > 100 µM (inactive)
CC1=N/C(=C\c2c(O)ccc3ccccc23)C(=O)O1 | > 100 µM (inactive) | > 100 µM (inactive) | > 100 µM (inactive) | > 100 µM (inactive) | > 100 µM (inactive) | > 100 µM (inactive) | > 100 µM (inactive) | > 100 µM (inactive) | > 100 µM (inactive) | > 100 µM (inactive) | > 100 µM (inactive) | > 100 µM (inactive) | > 100 µM (inactive) | > 100 µM (inactive) | > 100 µM (inactive) | > 100 µM (inactive) |  | 
[N-]=[N+]=NC1C2CC3CC(C2)CC1C3 (stereo unspecified) | > 100 µM (inactive) | > 100 µM (inactive) | > 100 µM (inactive) | > 100 µM (inactive) | > 100 µM (inactive) | > 100 µM (inactive) | > 100 µM (inactive) | > 100 µM (inactive) | > 100 µM (inactive) | > 100 µM (inactive) | > 100 µM (inactive) |  | > 100 µM (inactive) | > 100 µM (inactive) | > 100 µM (inactive) | > 100 µM (inactive) | > 100 µM (inactive) | > 100 µM (inactive)
COc1cc([C@@H]2c3cc4c(cc3[C@@H](NC(=O)c3cccc([N+](=O)[O-])c3)C3COC(=O)[C@@H]32)OCO4)cc(OC)c1O (stereo partly specified) | 0.202 µM (active) | 0.0442 µM (active) | 0.128 µM (active) | 0.608 µM (active) | 0.0398 µM (active) | 1.47 µM (inactive) | 0.0145 µM (active) | < 0.01 µM (active) |  | 2.23 µM (inactive) | 0.721 µM (active) | 0.552 µM (active) | 0.452 µM (active) | 0.211 µM (active) | 0.166 µM (active) | 3.89 µM (inactive) | 0.237 µM (active) | 0.127 µM (active)
O/N=C/c1cc2c(cc1Br)OCO2 | > 100 µM (inactive) | > 100 µM (inactive) | > 100 µM (inactive) | > 100 µM (inactive) | > 100 µM (inactive) | > 100 µM (inactive) | > 100 µM (inactive) | > 100 µM (inactive) | > 100 µM (inactive) | > 100 µM (inactive) | > 100 µM (inactive) |  | > 100 µM (inactive) | > 100 µM (inactive) | > 100 µM (inactive) | > 100 µM (inactive) | > 100 µM (inactive) | > 100 µM (inactive)
OCC(O)C(OC1OC(CO)C(O)C(O)C1O)c1nn(-c2ccc(Cl)cc2)c2nc3cc(Cl)c(Cl)cc3nc12 (stereo unspecified) | > 100 µM (inactive) |  | > 100 µM (inactive) | > 100 µM (inactive) | > 100 µM (inactive) | > 100 µM (inactive) | > 100 µM (inactive) | > 100 µM (inactive) | > 100 µM (inactive) | > 100 µM (inactive) | > 100 µM (inactive) | > 100 µM (inactive) |  | > 100 µM (inactive) | > 100 µM (inactive) | > 100 µM (inactive) |  | 
CC(c1ccccc1)N1CC(C)(c2ccccc2)N(O)C(c2ccccc2)C1C (stereo unspecified) | 5.92 µM (inactive) | 7.01 µM (inactive) | 3.59 µM (inactive) | 11.2 µM (inactive) | 15.5 µM (inactive) | 8 µM (inactive) | 3.47 µM (inactive) | 7.29 µM (inactive) | 6.4 µM (inactive) | 16.9 µM (inactive) | 9.91 µM (inactive) | 4.15 µM (inactive) | 7.82 µM (inactive) |  | 13.1 µM (inactive) | 3.23 µM (inactive) |  | 
Clc1ccc(OCCSCCCCCCCCCCSCCOc2ccc(Cl)cc2)cc1 | > 100 µM (inactive) | > 100 µM (inactive) | > 100 µM (inactive) | > 100 µM (inactive) | > 100 µM (inactive) | > 100 µM (inactive) | > 100 µM (inactive) | > 100 µM (inactive) | > 100 µM (inactive) | > 100 µM (inactive) | > 100 µM (inactive) | > 100 µM (inactive) | > 100 µM (inactive) | > 100 µM (inactive) | > 100 µM (inactive) | > 100 µM (inactive) | > 100 µM (inactive) | > 100 µM (inactive)
CN1CCCC2[C@@H]3CCC4=C(O)C(=O)CC[C@]4(C)C3CC[C@@]21C (stereo partly specified) | > 100 µM (inactive) | > 100 µM (inactive) | > 100 µM (inactive) |  | > 100 µM (inactive) | > 100 µM (inactive) | > 100 µM (inactive) | > 100 µM (inactive) | > 100 µM (inactive) | > 100 µM (inactive) | > 100 µM (inactive) | > 100 µM (inactive) | > 100 µM (inactive) | > 100 µM (inactive) | > 100 µM (inactive) | > 100 µM (inactive) | > 100 µM (inactive) | > 100 µM (inactive)
COC(=O)C12C3C4C1C1C2C3C41C(=O)OC(C)(C)C (stereo unspecified) | > 100 µM (inactive) | > 64.3 µM (inactive) | > 100 µM (inactive) |  | > 100 µM (inactive) | > 100 µM (inactive) | > 100 µM (inactive) | > 63.5 µM (inactive) | > 100 µM (inactive) | > 100 µM (inactive) | > 81.3 µM (inactive) | > 100 µM (inactive) | > 100 µM (inactive) | > 100 µM (inactive) | > 100 µM (inactive) | > 100 µM (inactive) | > 100 µM (inactive) | > 100 µM (inactive)
COC(=O)C(C(=O)C(=O)Nc1cccc(O)c1)c1nc2ccc(Cl)cc2nc1O (stereo unspecified) | > 100 µM (inactive) | > 100 µM (inactive) | > 100 µM (inactive) | > 100 µM (inactive) | > 100 µM (inactive) | > 100 µM (inactive) | > 100 µM (inactive) | > 100 µM (inactive) |  | > 100 µM (inactive) | > 100 µM (inactive) | > 100 µM (inactive) | > 100 µM (inactive) | > 100 µM (inactive) | > 100 µM (inactive) | > 100 µM (inactive) | > 100 µM (inactive) | 71.6 µM (inactive)
Cc1cc2c(=O)cc(-c3ccc(C(F)(F)F)cc3)oc2c(C(=O)O)c1C | > 100 µM (inactive) | > 100 µM (inactive) | > 100 µM (inactive) |  |  | > 100 µM (inactive) | > 100 µM (inactive) | > 100 µM (inactive) | > 100 µM (inactive) | > 100 µM (inactive) | > 100 µM (inactive) | > 100 µM (inactive) | > 100 µM (inactive) | > 100 µM (inactive) | > 100 µM (inactive) | > 100 µM (inactive) | > 100 µM (inactive) | > 100 µM (inactive)
O=S(=O)(O)C1=C2Sc3ccccc3N=C2c2ccccc2C1 | 17.5 µM (inactive) | 16.2 µM (inactive) | 12.5 µM (inactive) | 12.2 µM (inactive) | 20.1 µM (inactive) | 15.8 µM (inactive) | 4.88 µM (inactive) | 19.5 µM (inactive) | 16.7 µM (inactive) | 20.2 µM (inactive) | 16.9 µM (inactive) | 14.1 µM (inactive) | 13.2 µM (inactive) | 13.8 µM (inactive) | 12.5 µM (inactive) | 19.4 µM (inactive) | 20.1 µM (inactive) | 20.3 µM (inactive)
c1ccc(C2[C@@H]3CCCc4ccccc4C3=NN2c2ccccc2)cc1 (stereo partly specified) | > 100 µM (inactive) | > 100 µM (inactive) | > 100 µM (inactive) | > 100 µM (inactive) | > 100 µM (inactive) | > 100 µM (inactive) | 48.6 µM (inactive) | > 100 µM (inactive) | 35 µM (inactive) | > 100 µM (inactive) | > 100 µM (inactive) | > 100 µM (inactive) | 18.8 µM (inactive) | > 100 µM (inactive) | > 100 µM (inactive) | > 100 µM (inactive) |  | > 100 µM (inactive)
Oc1cc(-c2ccccn2)nc2ccc(Cl)cc12 | 72.9 µM (inactive) |  | 58.6 µM (inactive) | 58.9 µM (inactive) | 40.3 µM (inactive) | 24 µM (inactive) | 53.7 µM (inactive) | 38.1 µM (inactive) | 7.35 µM (inactive) | > 100 µM (inactive) | 44.2 µM (inactive) |  |  | 48 µM (inactive) |  | 36.1 µM (inactive) |  | 

From ChEMBL document CHEMBL1201862, “PubChem BioAssay data set” (2004)
